The test system of this assay is mice. The assay is described as follows: Neuropharmacological Assay (SmartCube): automated behavioral signature of compound-treated mice compared with a database of reference drug classes. Particulars: for minimal effective dose: Mus musculus, ip. Type of assay: in vivo. A digest of the protocol:
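Probabilities reflect how closely the digitally recorded behavioural signature at 3.0 mg/kg i.p. matched each reference class (antipsychotic, anxiolytic, antidepressant etc.). Dosing occurred 15 min before testing. Minimal effective dose was the dose giving 45% or more total activity.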

Where [1] appears, read: minimal effective dose: dose having 45% or more total activity in SmartCube, i.p., if only one dose tested, that dose is shown, read-out: MED.
Where [2] appears, read: SmartCube class probability, 3.0 mg/kg i.p., 15 min before test.
The mark [3] stands for this setting: SmartCube class probability, 3.0 mg/kg i.p., 15 min before test, hydrochloride, 3 mg/kg.
[4] abbreviates: dose having 45% or more total activity in SmartCube, i.p., if only one dose was tested, that dose is shown, hydrochloride.
Setting [5] is: probability that activity matches this class of agents, 3.0 mg/kg i.p., 15 min before test.
The mark [6] stands for this setting: probability that activity matches this class of agents, 3.0 mg/kg i.p., 15 min before test, hydrochloride, 3 mg/kg.
The mark [7] stands for this setting: SmartCube probability class, 3.0 mg/kg dose, i.p. 15 min before the behavioral test.

Each structure is given as a SMILES string. Counter-ions that a name gives are not always drawn. Like-named read-outs stand apart in the source and are kept apart here.

On to `CNC1(C)CCc2c(csc2C)C1` (single isomer, unassigned) [Compound 149, N, 1,5-trimethyl-6,7-dihydro-4H-2-benzothiophen-5-amine hydrochloride], for which the minimal effective dose under setting [1] turned out to be 3 mg/kg. Moreover, under setting [2], the AD entry is on record as “ND (^ <4%)”, the AG result is given as “ND (^ <4%)”, the AN entry was “ND (^ <4%)” and the AP result is on record as “ND (^ <4%)”. Besides, under setting [2], the AX entry is recorded as “ND (^ <4%)”, the CE entry is recorded as “ND (^ <4%)”, the MS result is recorded as “ND (^ <4%)” and the SH entry is reported as “ND (^ <4%)”. Besides, the UK entry under setting [2] was “ND (^ <4%)”. Moreover, under setting [3], the HL entry is reported as “+ (≥4%)” and the PS result was “++++ (≥74%)”.

Take `CNC1COc2c(csc2C(F)(F)F)C1` (stereo not drawn) [Compound 260, N-methyl-7-(trifluoromethyl)-3,4-dihydro-2H-thieno[3,4-b]pyran-3-amine hydrochloride]: the minimal effective dose under setting [1] amounted to 3 mg/kg. Moreover, under setting [2], the AD result is given as “+ (≥4%)”, the AG entry is “ND (^ <4%)”, the AN entry was “ND (^ <4%)” and the AP entry is recorded as “ND (^ <4%)”. Besides, under setting [2], the AX entry is reported as “ND (^ <4%)”, the CE result is “ND (^ <4%)”, the HL result was “ND (^ <4%)” and the MS result is recorded as “ND (^ <4%)”. Under setting [2], the PS result is reported as “ND (^ <4%)”, the SH result is “ND (^ <4%)” and the UK result is “+++ (≥49%)”.

As for `CN(C)C1CCc2cscc2C1.Cl` (single isomer, unassigned) [Compound 156, N,N-dimethyl-4,5,6,7-tetrahydro-2-benzothiophen-5-amine hydrochloride], the minimal effective dose under setting [1] is 3 mg/kg. Further, under setting [2], the AD result was “ND (^ <4%)”, the AG result is “ND (^ <4%)”, the AN result is “ND (^ <4%)” and the AP result is on record as “ND (^ <4%)”. Further, under setting [2], the CE entry is “ND (^ <4%)”, the HL entry was “ND (^ <4%)”, the MS result was “ND (^ <4%)” and the PS result is “ND (^ <4%)”. The SH result under setting [2] was “ND (^ <4%)”. In addition, under setting [3], the AX entry was “++ (≥24%)” and the UK result is reported as “++ (≥24%)”.

Consider `CCc1scc2c1CCC(NC)C2` (single isomer, unassigned) [Compound 114, 1-ethyl-N-methyl-4,5,6,7-tetrahydro-2-benzothiophen-5-amine hydrochloride], for which the “MED (minimal effective dose)” value under setting [4] was determined as 3 mpk. Also, under setting [5], the AG entry is on record as “ND (^ <4%)”, the AN result was “ND (^ <4%)”, the AX entry is “ND (^ <4%)” and the CE result is “ND (^ <4%)”. Besides, under setting [5], the HL entry was “ND (^ <4%)”, the MS entry is “ND (^ <4%)”, the PS entry is listed as “ND (^ <4%)” and the SH result was “ND (^ <4%)”. Also, the UK result under setting [5] was “ND (^ <4%)”. Moreover, under setting [6], the AD entry is recorded as “+++ (≥49%)” and the AP result was “+ (≥4%)”.

In the case of `CNC1CCc2csc(C#N)c2C1` (single isomer, unassigned) [Compound 134, 6-(methylamino)-4,5,6,7-tetrahydro-2-benzothiophene-1-carbonitrile hydrochloride], the “MED (minimal effective dose)” value under setting [4] stood at 3 mpk. In addition, under setting [5], the AG result is given as “ND (^ <4%)”, the AN result was “ND (^ <4%)”, the AX result is reported as “ND (^ <4%)” and the CE entry is on record as “ND (^ <4%)”. In addition, under setting [5], the HL entry is “ND (^ <4%)”, the MS entry is “ND (^ <4%)”, the PS result is recorded as “ND (^ <4%)” and the SH entry was “ND (^ <4%)”. Further, under setting [6], the AD entry is “ND (^ <4%)”, the AP entry is “ND (^ <4%)” and the UK result was “+++ (≥49%)”.

For the compound `CNC1COc2scc(C#N)c2C1` (stereo not drawn) [Compound 322, 3-(methylamino)-3,4-dihydro-2H-thieno[2,3-b]pyran-5-carbonitrile hydrochloride], the minimal effective dose (minimal effective dose: dose having 45% or more total activity in SmartCube, i.p., if only one dose was tested, that dose is shown, read-out: MED) turned out to be 3 mg/kg. Moreover, under setting [7], the AD result is “ND (^ <4%)”, the AG result is listed as “ND (^ <4%)”, the AN entry is on record as “ND (^ <4%)” and the AP result is “+++ (≥49%)”. Besides, under setting [7], the AX result was “ND (^ <4%)”, the CE entry is on record as “ND (^ <4%)”, the HL entry was “ND (^ <4%)” and the MS result is recorded as “ND (^ <4%)”. Further, under setting [7], the PS entry is “ND (^ <4%)”, the SH entry was “ND (^ <4%)” and the UK entry was “++ (≥24%)”.

Regarding `CNC1CCc2scc(C#N)c2C1` (single isomer, unassigned) [Compound 174, 5-(methylamino)-4,5,6,7-tetrahydrobenzothiophene-3-carbonitrile hydrochloride], under setting [2], the AD result is “ND (^ <4%)”, the AG entry is “ND (^ <4%)”, the AN entry is “ND (^ <4%)” and the AP result was “ND (^ <4%)”. In addition, under setting [2], the CE result is given as “ND (^ <4%)”, the HL entry is “ND (^ <4%)”, the MS entry is recorded as “ND (^ <4%)” and the PS result was “ND (^ <4%)”. Besides, under setting [2], the SH entry is “+ (≥4%)” and the UK result is “ND (^ <4%)”. Further, the AX result under setting [3] is listed as “ND (^ <4%)”. Under “minimal effective dose: dose having 45% or more total activity in SmartCube, i.p., if only one dose tested, that dose is shown, hydrochloride”, the MED turned out to be 1 mpk.

On to `CNC1CCc2c(F)sc(C)c2C1` (stereo not drawn) [Compound 100, 1-fluoro-N, 3-dimethyl-4,5,6,7-tetrahydro-2-benzothiophen-5-amine hydrochloride], for which, where the note is “dose having 45% or more total activity in SmartCube, i.p., if only one dose was tested, that dose is shown, read-out: MED (minimal effective dose)”, the minimal effective dose amounted to 1 mg/kg. Further, under setting [5], the AD entry is on record as “ND (^ <4%)”, the AG result was “ND (^ <4%)”, the AN entry is “ND (^ <4%)” and the AP result is recorded as “++++ (≥74%)”. In addition, under setting [5], the AX entry is on record as “ND (^ <4%)”, the CE entry is recorded as “ND (^ <4%)”, the HL result is “ND (^ <4%)” and the MS result is recorded as “ND (^ <4%)”. For the same compound, under setting [5], the PS result is reported as “ND (^ <4%)”, the SH result is “ND (^ <4%)” and the UK entry is “ND (^ <4%)”.

For `Cc1scc2c1CCC(N)C2` (single isomer, unassigned) [Compound 164, 1-methyl-4,5,6,7-tetrahydro-2-benzothiophen-5-amine hydrochloride], the minimal effective dose under setting [1] turned out to be 3 mg/kg. Also, under setting [2], the AG result is reported as “ND (^ <4%)”, the AN entry is “ND (^ <4%)”, the AP result is on record as “ND (^ <4%)” and the AX entry is on record as “ND (^ <4%)”. Besides, under setting [2], the CE entry is “ND (^ <4%)”, the MS entry is reported as “ND (^ <4%)”, the PS result is given as “ND (^ <4%)” and the SH entry is “ND (^ <4%)”. For the same compound, the UK result under setting [2] is on record as “ND (^ <4%)”. Under setting [3], the AD result was “+++ (≥49%)” and the HL result is listed as “ND (^ <4%)”.

These data come from patent US20260274814A1, “THIENYL COMPOUNDS FOR THE TREATMENT OF A CENTRAL NERVOUS SYSTEM DISEASE OR DISORDER” (Coreterra Therapeutics, Inc., priority 2023, published 2026).
